Here are results for 6 compounds from patent publication US12582721B2, “Molybdenum-based feed supplement for bees” (UNIVERSITE DE VERSAILLES—SAINT-QUENTIN-EN-YVELINES, priority 2020, dated 2026).

Some results are limits rather than exact numbers.

Broadly, the IC50 is the point on the concentration scale where inhibition reaches its midpoint. A low value points to greater potency in that assay.

The test system of data set [1] is human epithelial pancreatic adenocarcinoma cells of the BxPC-3 line. Nature of the data set: Resazurin cell proliferation test, BxPC-3 cells. Format: cell-based. From the text: (§1) For cell culture, human cervical epithelial cells of the HeLa line, human epithelial pancreatic adenocarcinoma cells of the BxPC-3 line and healthy Madin-Darby canine kidney epithelial cells of the MDCK line were used in this study. The Resazurin cell proliferation test was applied according to the literature (S. Anoopkumar-Dukie, J. B. Carey, T. Conere, E. O'Sullivan, F. N. van Pelt, A. Allshire, Br J Radiol 2005, 78, 945, DOI: 10.1259/bjr/54004230). As an indicator of the effectiveness of the experimental compounds on cell proliferation, the median inhibitory concentration (IC50) was used. The lower the IC50 value, the higher the activity (in this case, the cytotoxicity).
(§2) Five formula I complexes were tested in this study in comparison to two reference anti-cancer compounds (“Cisplatin” and Doxorubicin complex).
A general note: The colour change of resazurin is a common sign of viable cells or microbes.

Data set [2] deals with healthy Madin-Darby canine kidney epithelial cells of the MDCK line. The data set is described as follows: Resazurin cell proliferation test, MDCK cells. Format: cell-based.
From the text: as §1, §2

The test system of data set [3] is human cervical epithelial cells of the HeLa line. The data set is described as follows: Resazurin cell proliferation test, HeLa cells. Format: cell-based.
From the text: as §1, §2

The nature of data set [4]: Chemical stability of the complexes (solid, water, physiological medium, sugar syrup; 1H-NMR or UV-vis). Format: physicochemical. Particulars: for Stability in a physiological medium or in a sugar syrup: physiological medium or sugar syrup with 50% by weight, very low concentrations; for Stability in water: 5×10^−3-2×10^−7 M concentration range (K—Mo2O2S2-LCys: down to micromolar concentrations). The source says:
In solid form, the compounds obtained are perfectly stable in air and can be kept without any special conditions for years without any alteration.
The stabilities of the complexes in solution are studied by different techniques (^1H-NMR or UV-vis spectroscopy), the objective being to study their behavior in different media in terms of stability.

The conditions of data set [5]: cited from earlier work.
[6] abbreviates: pancreatic cancer cells, IC50 equal to and greater than 100 μM considered no activity.
The mark [7] stands for this setting: healthy cells, IC50 equal to and greater than 100 μM considered no activity.
Where [8] appears, read: cervical cancer cells, IC50 equal to and greater than 100 μM considered no activity.

Regarding `N.N.[Cl][Pt][Cl]` [Cisplatin, reference compound], the IC50 in data set [1] (setting [6]) is 11.2 ± 1.2 µM; in data set [2] (setting [7]), 30.9 ± 1.1 µM; in data set [3] (setting [8]), 3.99 ± 0.33 µM.

In the case of `COc1cccc2c1C(=O)c1c(O)c3c(c(O)c1C2=O)C[C@@](O)(C(=O)CO)C[C@@H]3O[C@H]1C[C@H](N)[C@H](O)[C@H](C)O1` [Doxorubicin, reference compound], the IC50 in data set [1] (Homo sapiens, BXPC-3) came out at 3.99 ± 7.9 µM; in data set [2] (Canis lupus familiaris, MDCK), 1.48 ± 3.1 µM; in data set [3] (Homo sapiens, HeLa), 1.31 µM.

With `N[C@@H](C[S-])C(=O)[O-].N[C@@H](C[S-])C(=O)[O-].[K+].[K+].[O]=[Mo+]12[S][Mo+]1(=[O])[S]2` [K—Mo2O2S2-Cys, K2[Mo2O2S2 (LCys)2]·xH2O], in data set [4], the “Stability in a physiological medium or in a sugar syrup” value was “good stability” and the Stability in water entry was “without any breakdown”. Further, in data set [1] (setting [6]), the “IC50, BxPc-3” value is on record as “Inactive”. Moreover, the “IC50, MDCK” value in data set [2] (setting [7]) is “Inactive”. For the same compound, in data set [3] (setting [8]), the “IC50, HeLa” value is “Inactive”.

In the case of `O=C([O-])CN(CCN(CC(=O)[O-])CC(=O)[O-])CC(=O)[O-].[O]=[Mo+]12[S][Mo+]1(=[O])[S]2.c1ccc([P+](c2ccccc2)(c2ccccc2)c2ccccc2)cc1.c1ccc([P+](c2ccccc2)(c2ccccc2)c2ccccc2)cc1` [PPh4—Mo2O2S2-EDTA], the results for the IC50 in data set [1] (setting [6]), in data set [2] (setting [7]) and in data set [3] (setting [8]) were 59.8 ± 26.4 µM, at least 100 µM and at least 100 µM, respectively.

For the compound `O=C([O-])CN(CCN(CC(=O)[O-])CC(=O)[O-])CC(=O)[O-].[O]=[Mo+]12[S][Mo+]1(=[O])[S]2` [[Mo2O2S2-EDTA]^2−], in data set [4], the “Stability in a physiological medium or in a sugar syrup” value is on record as “good stability” and the Stability in water entry is listed as “no sign of decomposition”.

Regarding `[Li]` [lithium], the “Serum lithium concentration at which toxicity appears” value in data set [5] is on record as “greater than 2 mmol/l”.
